In brackets after ≈: the same amount, converted by molar mass. Where two headings read alike, the source gives them in different places.
Tests used:
[1] = molecular target: human sigma receptor (Homo sapiens, UniProt Q99720); experiment: Human sigma receptor assay; format: binding; conditions: read-out: IC50 Against Human Sigma Receptor
Protocol: (§1) The ability of test compounds to displace sigma ligands in vitro was determined by the methods of de Costa et al. (FEBS Lett. 251:53 (1989)) and De Haven-Hudkine et al. (Eur. J. Pharmacol. 227:372 (1992)) having guinea pig as a receptor source. Whereas, the methods of Gamapatju et al. (J. Pharm.&Exp. 289:251 (1999)) were utilized for human sigma receptors.

[2] = system: GSH Level; experiment: Safety Assessment: GSH Level
[3] = Log D7.5
[4] = system: Cell Viability; experiment: Safety Assessment: Cell Viability
[5] = molecular target: sigma-2 (Rattus norvegicus, UniProt Q5U3Y7); experiment: Behavioral receptor assays: sigma-2; format: binding; conditions: read-out: Receptors (IC50) sigma-2
Chain of sigma-2 (Q5U3Y7 whole entry): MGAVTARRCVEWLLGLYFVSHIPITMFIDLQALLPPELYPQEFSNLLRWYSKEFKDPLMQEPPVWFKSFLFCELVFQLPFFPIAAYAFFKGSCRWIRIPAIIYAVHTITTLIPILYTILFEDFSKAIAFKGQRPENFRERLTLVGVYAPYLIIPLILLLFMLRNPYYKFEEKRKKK
Protocol: (§2) Various compounds of the present invention (19, 31, and 32) were evaluated in a group of assays based on mammalian cellular receptors associated with behavior. The group consisted of assays base on human dopamine D1, D2L, D3, D4.2, D4.4, D4.7, and D5 receptors, and the transporter; human serotonin 5-HT1A, 5-HT1B, 5-HT1D, 5-HT2A, 5-HT2B, 5-HT2C, 5-HT3, 5-HT5A, 5-HT6, and 5-HT7 receptors, and the human serotonin transporter; guinea pig 5-HT4 and sigma-1 receptors; rat sigma-2 and muscarinic receptors; and human NK1-3 receptors. The following table presents a subset of the results of these assays.

[6] = system: RedOx State; experiment: Safety Assessment: RedOx State
[7] = molecular target: T1, sigma-1 receptor (guinea pig brain) (Cavia porcellus, UniProt Q60492); experiment: Antagonism of haloperidol binding to guinea pig sigma-1 receptors; conditions: sigma-1, guinea pig brain; for % Inhibition: test concentration not given
T1 construct: from tissue; host or cells: guinea pig brain
T1 sequence (Q60492 whole entry): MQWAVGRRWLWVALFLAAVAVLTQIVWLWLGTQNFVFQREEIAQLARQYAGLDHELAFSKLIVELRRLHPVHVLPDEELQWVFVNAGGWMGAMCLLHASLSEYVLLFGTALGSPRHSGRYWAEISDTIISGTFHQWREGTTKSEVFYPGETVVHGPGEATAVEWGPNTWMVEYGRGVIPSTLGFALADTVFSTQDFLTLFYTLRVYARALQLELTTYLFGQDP

[8] = system: Caspase-3; experiment: Safety Assessment: Caspase-3 Induction
[9] = molecular target: sigma-1 receptors (Cavia porcellus, UniProt Q60492); experiment: Behavioral receptor assays: sigma-1; format: binding; conditions: guinea pig
Chain of sigma-1 receptors (Q60492 whole entry): as above
Protocol: as §2

[10] = system: DNA Synthesis; experiment: Safety Assessment: DNA Synthesis
[11] = system: Protein Synthesis; experiment: Safety Assessment: Protein Synthesis
[12] = molecular target: T2, CYP1A2 (Homo sapiens, UniProt P05177); experiment: In Vitro Metabolism (isozymes of P450) CYP1A2
T2 sequence (P05177 1-516): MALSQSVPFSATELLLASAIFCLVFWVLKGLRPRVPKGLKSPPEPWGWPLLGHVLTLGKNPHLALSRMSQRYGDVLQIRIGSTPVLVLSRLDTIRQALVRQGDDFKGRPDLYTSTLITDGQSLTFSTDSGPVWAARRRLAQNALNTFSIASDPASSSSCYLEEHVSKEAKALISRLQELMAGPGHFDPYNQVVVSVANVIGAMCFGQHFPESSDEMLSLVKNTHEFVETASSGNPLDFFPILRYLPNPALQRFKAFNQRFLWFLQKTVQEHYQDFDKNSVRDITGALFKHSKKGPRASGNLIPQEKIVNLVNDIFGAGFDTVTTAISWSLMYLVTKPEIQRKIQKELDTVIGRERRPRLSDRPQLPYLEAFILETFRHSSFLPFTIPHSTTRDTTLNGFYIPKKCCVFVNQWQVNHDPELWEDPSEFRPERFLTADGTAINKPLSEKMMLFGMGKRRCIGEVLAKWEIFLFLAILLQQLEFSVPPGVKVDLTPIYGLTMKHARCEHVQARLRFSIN

[13] = molecular target: CYP2D6 (Homo sapiens, UniProt P10635); experiment: In Vitro Metabolism (isozymes of P450) CYP2D6
Chain of CYP2D6 (P10635 whole entry): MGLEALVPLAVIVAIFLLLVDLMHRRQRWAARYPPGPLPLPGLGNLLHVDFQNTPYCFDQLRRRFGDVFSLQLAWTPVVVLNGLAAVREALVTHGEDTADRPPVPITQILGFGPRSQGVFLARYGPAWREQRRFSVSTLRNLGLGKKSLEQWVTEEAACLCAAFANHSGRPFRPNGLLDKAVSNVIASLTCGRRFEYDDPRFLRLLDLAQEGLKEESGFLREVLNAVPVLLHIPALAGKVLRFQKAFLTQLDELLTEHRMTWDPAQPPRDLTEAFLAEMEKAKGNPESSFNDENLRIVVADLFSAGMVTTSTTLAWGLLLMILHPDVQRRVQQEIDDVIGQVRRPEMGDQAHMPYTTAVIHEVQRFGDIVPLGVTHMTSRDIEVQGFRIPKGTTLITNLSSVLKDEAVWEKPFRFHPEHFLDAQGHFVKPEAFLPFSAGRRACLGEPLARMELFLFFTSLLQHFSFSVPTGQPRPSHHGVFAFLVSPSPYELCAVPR

[14] = molecular target: CYP2C9 (Homo sapiens, UniProt P11712); experiment: In Vitro Metabolism (isozymes of P450) CYP2C9
Chain of CYP2C9 (P11712 whole entry): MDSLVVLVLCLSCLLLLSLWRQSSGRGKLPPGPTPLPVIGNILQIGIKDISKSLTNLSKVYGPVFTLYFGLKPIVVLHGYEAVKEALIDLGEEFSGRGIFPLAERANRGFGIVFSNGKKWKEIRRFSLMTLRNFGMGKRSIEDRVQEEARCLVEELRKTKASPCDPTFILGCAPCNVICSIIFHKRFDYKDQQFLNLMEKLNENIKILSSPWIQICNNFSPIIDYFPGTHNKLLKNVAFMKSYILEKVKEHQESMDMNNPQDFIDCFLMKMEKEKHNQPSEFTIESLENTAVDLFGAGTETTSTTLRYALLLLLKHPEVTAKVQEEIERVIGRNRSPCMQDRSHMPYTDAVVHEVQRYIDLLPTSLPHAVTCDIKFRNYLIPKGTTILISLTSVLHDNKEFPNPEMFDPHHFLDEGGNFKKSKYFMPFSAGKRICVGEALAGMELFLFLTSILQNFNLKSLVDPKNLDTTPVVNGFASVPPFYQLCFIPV

[15] = molecular target: T3, guinea pig sigma receptor (Cavia porcellus, UniProt Q60492); experiment: Guinea pig sigma receptor assay; format: binding; conditions: read-out: IC50 Against Guinea Pig Sigma Receptor
T3 construct: having guinea pig as a receptor source; from tissue; host or cells: guinea pig
T3 sequence (Q60492 whole entry): as the sequence (Q60492 whole entry) above
Protocol: as §1

[16] = system: Membrane Integrity; experiment: Safety Assessment: Membrane Integrity
[17] = Pharmacokinetics in a single rat; format: in vivo; conditions: for concentration at 4 h: brain, 4 h post dose, read-out: Brain Tissue Distribution (4 h post dose, ng/g tissue); for concentration at 4 h / clearance / AUC(0-t): iv; for concentration at 4 h / AUC(0-t) / T1/2α / T1/2β: rat; for clearance / AUC(0-t): plasma; for clearance / Vb / Vc: rat (270 g); for AUC(0-t): read-out: AUC0-4h
Protocol: Pharmacokinetic properties of the compounds were evaluated in a single rat after dosing 4 and 5 mg/kg, respectively. The dose was well tolerated by the animal. The data below is based on a 270 g rat. Numerous time points were taken during a 4 hour period where a 0.1 mL volume of plasma was transferred to a 1.4 mL polypropylene vial and 0.4 mL of chilled methanol (0° C.) was added. The resulting percipitate was centrifuged at 7000 rpm at 4° C. for 5 min. The resulting supernatant was analysed by HPLC using a sample volume of 0.05 mL alongside standard solutions prepared by “spiking” known amounts of the compounds into the control plasma. Standard solution of the compounds were prepared in methanol.

[18] = Permeability; format: in vitro ADME; conditions: not told; read-out: Permeability PupperX10^6 cm/s
[19] = Solubility
[20] = Protein Binding
[21] = molecular target: CYP2C19 (Homo sapiens, UniProt P33261); experiment: In Vitro Metabolism (isozymes of P450) CYP2C19
Chain of CYP2C19 (P33261 whole entry): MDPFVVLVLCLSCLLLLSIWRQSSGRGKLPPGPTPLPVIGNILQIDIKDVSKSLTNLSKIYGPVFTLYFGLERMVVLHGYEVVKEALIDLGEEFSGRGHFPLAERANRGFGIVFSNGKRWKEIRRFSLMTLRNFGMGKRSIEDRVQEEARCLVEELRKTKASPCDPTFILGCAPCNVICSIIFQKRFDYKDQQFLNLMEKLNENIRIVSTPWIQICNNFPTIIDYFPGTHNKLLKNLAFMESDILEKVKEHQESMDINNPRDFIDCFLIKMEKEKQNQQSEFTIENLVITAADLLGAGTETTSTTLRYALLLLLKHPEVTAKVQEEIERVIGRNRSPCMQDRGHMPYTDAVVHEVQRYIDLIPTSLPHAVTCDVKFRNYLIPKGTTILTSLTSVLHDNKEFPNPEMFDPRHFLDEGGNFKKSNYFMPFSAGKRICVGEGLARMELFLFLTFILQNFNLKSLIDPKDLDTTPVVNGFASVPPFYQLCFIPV

[22] = Metabolic Stability
[23] = molecular target: CYP3A4 (Homo sapiens, UniProt P08684); experiment: In Vitro Metabolism (isozymes of P450) CYP3A4
Chain of CYP3A4 (P08684 whole entry): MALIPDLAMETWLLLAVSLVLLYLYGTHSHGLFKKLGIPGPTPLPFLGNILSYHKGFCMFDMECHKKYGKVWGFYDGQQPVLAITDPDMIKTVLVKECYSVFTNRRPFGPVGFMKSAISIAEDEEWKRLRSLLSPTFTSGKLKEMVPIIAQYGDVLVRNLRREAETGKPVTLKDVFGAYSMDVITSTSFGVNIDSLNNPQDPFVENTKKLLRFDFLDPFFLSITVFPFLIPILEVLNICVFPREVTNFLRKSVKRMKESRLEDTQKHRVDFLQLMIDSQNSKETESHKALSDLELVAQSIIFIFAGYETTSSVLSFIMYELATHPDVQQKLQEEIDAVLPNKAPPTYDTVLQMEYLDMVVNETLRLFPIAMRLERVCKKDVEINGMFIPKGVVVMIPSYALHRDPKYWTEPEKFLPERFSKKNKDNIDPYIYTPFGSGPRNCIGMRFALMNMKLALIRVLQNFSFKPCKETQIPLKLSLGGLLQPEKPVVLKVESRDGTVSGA

Chain of human sigma receptor (Q99720 whole entry): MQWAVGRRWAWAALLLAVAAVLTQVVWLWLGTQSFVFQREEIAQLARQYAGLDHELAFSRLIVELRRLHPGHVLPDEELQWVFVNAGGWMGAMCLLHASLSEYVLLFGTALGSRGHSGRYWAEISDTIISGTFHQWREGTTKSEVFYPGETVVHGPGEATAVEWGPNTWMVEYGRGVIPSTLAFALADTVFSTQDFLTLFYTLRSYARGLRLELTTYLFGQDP

O=C1CCC2(CCN(Cc3ccc(F)cc3)CC2)Nc2ccccc21 [Compound 31, 1′-(4-fluorobenzyl)-3,4-dihydrospiro[5H-1-benzazepine-2(1H)-4′-piperidin]-5-one]
IC50 [1]: < 100 nM | GSH Level (% Control) [2]: <10 % Control | Log D7.5 [3]: 2.19 | Cell Viability [4]: <10 % inhibition | IC50 [5]: < 1000 nM | RedOx State [6]: 28 % inhibition | IC50 [7]: < 10 nM | % Inhibition [7]: >50% | Caspase-3 Induction % Induction [8]: <10 % Induction | IC50 [9]: < 10 nM | DNA Synthesis [10]: <10 % inhibition | Protein Synthesis [11]: 65 % inhibition | CYP1A2 [12]: <10 % inhibition | CYP2D6 [13]: 44 % inhibition | CYP2C9 [14]: <10 % inhibition | IC50 [15]: < 10 nM | Membrane Integrity [16]: <10 % inhibition | concentration at 4 h ([17]; 4 mg/kg i.v.): 70 ng/g | clearance ([17]; 4 mg/kg i.v.): 10.2 mL/min | AUC(0-t) ([17]; 4 mg/kg i.v., Peg400:Dextrose (2:3 v/v)): 1480 ng·h/mL | Vb ([17]; 4 mg/kg i.v.): 0.65 L | Vc ([17]; 4 mg/kg i.v.): 0.23 L | T1/2α ([17]; 4 mg/kg i.v.): 7.2 min | T1/2β ([17]; 4 mg/kg i.v.): 0.8 h | Papp [18]: 22.9 ×10⁻⁶ cm/s | solubility [19]: 192 µM (≈ 65 µg/mL) | fraction unbound [20]: 0.04 | CYP2C19 [21]: 28 % inhibition | Metabolic Stability (% parent remaining) [22]: 44 % parent remaining | CYP3A4 [23]: 22 % inhibition

OC1CCC2(CCN(Cc3ccc(F)cc3)CC2)Nc2ccccc21 (racemic) [Compound 32, 1′-(4-fluorobenzyl)-3,4-dihydrospiro[5H-1-benzazepine-2(1H)-4′-piperidin]-5ol]
IC50 [1]: < 100 nM | GSH Level (% Control) [2]: <10 % Control | Log D7.5 [3]: 3.7 | Cell Viability [4]: <10 % inhibition | IC50 [5]: < 1000 nM | RedOx State [6]: 17 % inhibition | IC50 [7]: < 10 nM | % Inhibition [7]: >50% | Caspase-3 Induction % Induction [8]: <10 % Induction | IC50 [9]: < 10 nM | DNA Synthesis [10]: <10 % inhibition | Protein Synthesis [11]: <10 % inhibition | CYP1A2 [12]: 20 % inhibition | CYP2D6 [13]: 102 % inhibition | CYP2C9 [14]: 11 % inhibition | IC50 [15]: < 10 nM | Membrane Integrity [16]: <10 % inhibition | concentration at 4 h ([17]; 5 mg/kg i.v.): 134 ng/g | clearance ([17]; 5 mg/kg i.v.): 31.7 mL/min | AUC(0-t) ([17]; 5 mg/kg i.v., 10% hydroxypropyl-p-cyclodextrin): 700 ng·h/mL | Vb ([17]; 5 mg/kg i.v.): 42 L | Vc ([17]; 5 mg/kg i.v.): 1.1 L | T1/2α ([17]; 5 mg/kg i.v.): 12.6 min | T1/2β ([17]; 5 mg/kg i.v.): 2.0 h | Papp [18]: 22.4 ×10⁻⁶ cm/s | solubility [19]: 83 µM (≈ 28.3 µg/mL) | fraction unbound [20]: < 0.01 | CYP2C19 [21]: 42 % inhibition | Metabolic Stability (% parent remaining) [22]: 1 % parent remaining | CYP3A4 [23]: 67 % inhibition

Reference: patent US6476019B1, “Spirocyclic ligands for sigma receptors, and libraries and methods of use thereof” (Sepracor Inc., priority 1999, dated 2002)
